Measurements reported in ChEMBL document CHEMBL3885881, “DrugMatrix”.

Organism: Rattus norvegicus
Experiment: DrugMatrix - Regimen: Daily Repeat
Format: toxicity, organism-based, Sprague-Dawley
Design: regimen Daily Repeat, gender Male, age 6-8 weeks
Conditions: in vivo, sc, route subcutaneous, […]; for ABSOLUTE BASOPHIL / ABSOLUTE EOSINOPHIL / ABSOLUTE LYMPHOCYTE / ABSOLUTE MONOCYTE / ABSOLUTE SEGMENTED NEUTROPHIL / BASOPHIL / EOSINOPHIL / ERYTHROCYTE COUNT / HEMATOCRIT / HEMOGLOBIN / LEUKOCYTE COUNT / LYMPHOCYTE / MEAN CORPUSCULAR HEMOGLOBIN / MEAN CORPUSCULAR VOLUME / MONOCYTE / NEUTROPHIL / NUCLEATED RED BLOOD CELLS / PLATELET COUNT: tissue Blood; for ALANINE AMINOTRANSFERASE / ALBUMIN / ALKALINE PHOSPHATASE / ASPARTATE AMINOTRANSFERASE / BLOOD UREA NITROGEN / CARBON DIOXIDE / CHLORIDE / CHOLESTEROL / CREATINE PHOSPHOKINASE / CREATININE / GLUCOSE / LACTATE DEHYDROGENASE / LIPASE / PHOSPHORUS / POTASSIUM / SODIUM / TOTAL BILIRUBIN / TOTAL PROTEIN / URIC ACID: tissue Plasma
[1] = 3 mg/kg, 72 h, dose level Low, time 3 day
[2] = 3 mg/kg, 120 h, dose level Low, time 5 day
[3] = 30 mg/kg, 72 h, dose level M2, time 3 day
[4] = 30 mg/kg, 120 h, dose level M2, time 5 day

With `CC(C)(C)CC(C)(C)c1ccc(OCCOCC[N+](C)(C)Cc2ccccc2)cc1.[Cl-]` [BENZETHONIUM CHLORIDE] the “ABSOLUTE BASOPHIL” value [1] was 0 CELLS/uL, the “ABSOLUTE EOSINOPHIL” value [1] was 41 CELLS/uL and the “ABSOLUTE LYMPHOCYTE” value [1] was 15440.33 CELLS/uL. The “ABSOLUTE MONOCYTE” value [1] was 415 CELLS/uL, the “ABSOLUTE SEGMENTED NEUTROPHIL” value [1] was 1437 CELLS/uL and the BASOPHIL [1] was 0%. The EOSINOPHIL [1] was 0.33%, the “ERYTHROCYTE COUNT” value [1] was 5.3 x10E6/uL and the HEMATOCRIT [1] was 33.43%. For the same compound, the HEMOGLOBIN [1] was 12.63 G/DL, the “LEUKOCYTE COUNT” value [1] was 17.33 x10E3/uL and the LYMPHOCYTE [1] was 89.33%. For the same compound, the “MEAN CORPUSCULAR HEMOGLOBIN” value [1] was 23.87 pg, the “MEAN CORPUSCULAR VOLUME” value [1] was 63.13 fL and the MONOCYTE [1] was 2.33%. The NEUTROPHIL [1] was 8%, the “NUCLEATED RED BLOOD CELLS” value [1] was 0 /100WBC and the “PLATELET COUNT” value [1] was 1329.67 x10E3/uL. For the same compound, the “ALANINE AMINOTRANSFERASE” value [1] was 45 u/L, the ALBUMIN [1] was 3.7 G/DL and the “ALKALINE PHOSPHATASE” value [1] was 323.67 u/L. The “ASPARTATE AMINOTRANSFERASE” value [1] was 74 u/L, the “BLOOD UREA NITROGEN” value [1] was 15.67 mg/dL and the “CARBON DIOXIDE” value [1] was 28 mmol/L. The CHLORIDE [1] was 101 MEQ/L, the CHOLESTEROL [1] was 83.33 mg/dL and the “CREATINE PHOSPHOKINASE” value [1] was 130.67 u/L. For the same compound, the CREATININE [1] was 0.18 mg/dL, the GLUCOSE [1] was 149.33 mg/dL and the “LACTATE DEHYDROGENASE” value [1] was 78.67 u/L. The LIPASE [1] was 8.67 u/L, the PHOSPHORUS [1] was 11.23 mg/dL and the POTASSIUM [1] was 6.78 MEQ/L. For the same compound, the SODIUM [1] was 142.67 MEQ/L, the “TOTAL BILIRUBIN” value [1] was 0.23 mg/dL and the “TOTAL PROTEIN” value [1] was 5.93 G/DL. For the same compound, the “URIC ACID” value [1] was 1.53 mg/dL, the “ABSOLUTE BASOPHIL” value [2] was 0 CELLS/uL and the “ABSOLUTE EOSINOPHIL” value [2] was 149.33 CELLS/uL. The “ABSOLUTE LYMPHOCYTE” value [2] was 16956.67 CELLS/uL, the “ABSOLUTE MONOCYTE” value [2] was 380.67 CELLS/uL and the “ABSOLUTE SEGMENTED NEUTROPHIL” value [2] was 2446.67 CELLS/uL. For the same compound, the BASOPHIL [2] was 0%, the EOSINOPHIL [2] was 0.67% and the “ERYTHROCYTE COUNT” value [2] was 5.5 x10E6/uL. The HEMATOCRIT [2] was 34.13%, the HEMOGLOBIN [2] was 12.67 G/DL and the “LEUKOCYTE COUNT” value [2] was 19.93 x10E3/uL. The LYMPHOCYTE [2] was 85.33%, the “MEAN CORPUSCULAR HEMOGLOBIN” value [2] was 23 pg and the “MEAN CORPUSCULAR VOLUME” value [2] was 62.03 fL. The MONOCYTE [2] was 2%, the NEUTROPHIL [2] was 12% and the “NUCLEATED RED BLOOD CELLS” value [2] was 0 /100WBC. For the same compound, the “PLATELET COUNT” value [2] was 1520.67 x10E3/uL, the “ALANINE AMINOTRANSFERASE” value [2] was 63 u/L and the ALBUMIN [2] was 3.47 G/DL. The “ALKALINE PHOSPHATASE” value [2] was 275 u/L, the “ASPARTATE AMINOTRANSFERASE” value [2] was 71.67 u/L and the “BLOOD UREA NITROGEN” value [2] was 14.67 mg/dL. The “CARBON DIOXIDE” value [2] was 27.33 mmol/L, the CHLORIDE [2] was 103 MEQ/L and the CHOLESTEROL [2] was 70.67 mg/dL. The “CREATINE PHOSPHOKINASE” value [2] was 560.33 u/L, the CREATININE [2] was 0.23 mg/dL and the GLUCOSE [2] was 152.67 mg/dL. The “LACTATE DEHYDROGENASE” value [2] was 156.67 u/L, the LIPASE [2] was 10 u/L and the PHOSPHORUS [2] was 11.23 mg/dL. For the same compound, the POTASSIUM [2] was 7.21 MEQ/L, the SODIUM [2] was 144.55 MEQ/L and the “TOTAL BILIRUBIN” value [2] was 0.17 mg/dL. For the same compound, the “TOTAL PROTEIN” value [2] was 5.73 G/DL, the “URIC ACID” value [2] was 1.53 mg/dL and the “ABSOLUTE BASOPHIL” value [3] was 0 CELLS/uL. For the same compound, the “ABSOLUTE EOSINOPHIL” value [3] was 0 CELLS/uL, the “ABSOLUTE LYMPHOCYTE” value [3] was 10787.33 CELLS/uL and the “ABSOLUTE MONOCYTE” value [3] was 579.67 CELLS/uL. For the same compound, the “ABSOLUTE SEGMENTED NEUTROPHIL” value [3] was 1766.33 CELLS/uL, the BASOPHIL [3] was 0% and the EOSINOPHIL [3] was 0%. For the same compound, the “ERYTHROCYTE COUNT” value [3] was 5.13 x10E6/uL, the HEMATOCRIT [3] was 31.77% and the HEMOGLOBIN [3] was 11.87 G/DL. The “LEUKOCYTE COUNT” value [3] was 13.13 x10E3/uL, the LYMPHOCYTE [3] was 83% and the “MEAN CORPUSCULAR HEMOGLOBIN” value [3] was 23.13 pg. For the same compound, the “MEAN CORPUSCULAR VOLUME” value [3] was 61.93 fL, the MONOCYTE [3] was 4.33% and the NEUTROPHIL [3] was 12.67%. For the same compound, the “NUCLEATED RED BLOOD CELLS” value [3] was 0 /100WBC, the “PLATELET COUNT” value [3] was 981 x10E3/uL and the “ALANINE AMINOTRANSFERASE” value [3] was 24.33 u/L. The ALBUMIN [3] was 2.63 G/DL, the “ALKALINE PHOSPHATASE” value [3] was 269 u/L and the “ASPARTATE AMINOTRANSFERASE” value [3] was 71.67 u/L. The “BLOOD UREA NITROGEN” value [3] was 15.33 mg/dL, the “CARBON DIOXIDE” value [3] was 21.67 mmol/L and the CHLORIDE [3] was 101 MEQ/L. For the same compound, the CHOLESTEROL [3] was 45 mg/dL, the “CREATINE PHOSPHOKINASE” value [3] was 122.67 u/L and the CREATININE [3] was 0.15 mg/dL. For the same compound, the GLUCOSE [3] was 140.67 mg/dL, the “LACTATE DEHYDROGENASE” value [3] was 116.67 u/L and the LIPASE [3] was 7 u/L. The PHOSPHORUS [3] was 11.27 mg/dL, the POTASSIUM [3] was 5.61 MEQ/L and the SODIUM [3] was 142.5 MEQ/L. For the same compound, the “TOTAL BILIRUBIN” value [3] was 0.1 mg/dL, the “TOTAL PROTEIN” value [3] was 5.93 G/DL and the “URIC ACID” value [3] was 2.4 mg/dL. For the same compound, the “ABSOLUTE BASOPHIL” value [4] was 0 CELLS/uL, the “ABSOLUTE EOSINOPHIL” value [4] was 0 CELLS/uL and the “ABSOLUTE LYMPHOCYTE” value [4] was 12245 CELLS/uL. The “ABSOLUTE MONOCYTE” value [4] was 1299.67 CELLS/uL, the “ABSOLUTE SEGMENTED NEUTROPHIL” value [4] was 8588.67 CELLS/uL and the BASOPHIL [4] was 0%. For the same compound, the EOSINOPHIL [4] was 0%, the “ERYTHROCYTE COUNT” value [4] was 4.82 x10E6/uL and the HEMATOCRIT [4] was 29.43%. For the same compound, the HEMOGLOBIN [4] was 11.43 G/DL, the “LEUKOCYTE COUNT” value [4] was 22.13 x10E3/uL and the LYMPHOCYTE [4] was 55%. For the same compound, the “MEAN CORPUSCULAR HEMOGLOBIN” value [4] was 23.73 pg, the “MEAN CORPUSCULAR VOLUME” value [4] was 61.07 fL and the MONOCYTE [4] was 6%. For the same compound, the NEUTROPHIL [4] was 39%, the “NUCLEATED RED BLOOD CELLS” value [4] was 0 /100WBC and the “PLATELET COUNT” value [4] was 1372 x10E3/uL. The “ALANINE AMINOTRANSFERASE” value [4] was 31.67 u/L, the ALBUMIN [4] was 2.27 G/DL and the “ALKALINE PHOSPHATASE” value [4] was 363.33 u/L. The “ASPARTATE AMINOTRANSFERASE” value [4] was 89.33 u/L, the “BLOOD UREA NITROGEN” value [4] was 11.67 mg/dL and the “CARBON DIOXIDE” value [4] was 29.33 mmol/L. The CHLORIDE [4] was 101.67 MEQ/L, the CHOLESTEROL [4] was 41.33 mg/dL and the “CREATINE PHOSPHOKINASE” value [4] was 166.67 u/L. The CREATININE [4] was 0.11 mg/dL, the GLUCOSE [4] was 117.33 mg/dL and the “LACTATE DEHYDROGENASE” value [4] was 105.33 u/L. For the same compound, the LIPASE [4] was 7 u/L, the PHOSPHORUS [4] was 10.93 mg/dL and the POTASSIUM [4] was 6.02 MEQ/L. The SODIUM [4] was 143.77 MEQ/L, the “TOTAL BILIRUBIN” value [4] was 0.1 mg/dL and the “TOTAL PROTEIN” value [4] was 5.3 G/DL. For the same compound, the “URIC ACID” value [4] was 1.83 mg/dL.
